Source: patent US20210278408A1, “METHODS OF TREATMENT OF CANCER WITH SUBSTITUTED PYRROLE AND PYRAZOLE COMPOUNDS AND DIAGNOSIS OF CANCERS SUSCEPTIBLE TO TREATMENT WITH SUBSTITUTED PYRROLE AND PYRAZOLE COMPOUNDS” (Bantam Pharmaceutical, LLC, priority 2018, published 2021)
Entries after “also recorded” stand apart in the source; their conditions may differ.

Legend:
[1] = system: BJAB (malignant human B-cell-line); assay: BJAB cell proliferation; assay type: cell-based; details: BJAB (malignant human B-cell-line) cell proliferation, EC50; read-out: BJAB
SU-DHL-10 xenograft = assay: Human xenograft model, diffuse large B-cell lymphoma line SU-DHL-10; assay type: in vivo, SCID beige mice; details: once daily oral gavage, p<0.01 for 10 and 30 mpk doses
Description: FIG. 10 is a set of graphs of in vivo treatment results for Athymic Nude mice engrafted with the DLBCL line SU-DHL-10 (left panel) or the CRC line HCT-116 (right panel). After 14 days, groups of mice (n=10 per group) were randomized by tumor volume and treated with Compound B19 (left panel) or Compound A197 (right panel). All animals dosed p.o. q.d. (orally once per day). Tumor burden was measured over 21 days. Compound B19 efficacy was monitored for 21 days following last dose to determine relapse. All data plotted as the mean±SEM, n=10 mice per group.
The positive results of the PK studies led to an evaluation of Compound A197 and Compound B19 in murine xenograft models of human tumors. Compound A197 was tested in a human tumor xenograft model using KRAS mutated colorectal cancer cell line HCT-116. Athymic nude mice (HSD:Athymic Nude-Foxn1 nu, Envigo) were inoculated subcutaneously with 5×10^6 HCT-116 cells in the right rear flank. The animals wethen staged and randomized by tumor size to achieve dose groups of 10 animals each with an average tumor volume of 150 mm^3. Tumor bearing mice were dosed once daily by oral gavage with a vehicle (5% NMP, 15% PEG400, 10% Solutol, and 70% D5W) or with A197 dissolved in vehicle to provide a dose concentration of 10 ml/kg. Compound B19 was tested in a human xenograft model using the human diffuse large B-cell lymphoma line SU-DHL-10 (ATCC). […]

HCT-116 = assay: Apoptosis, 72 hr: HCT-116; assay type: cell-based, human
SU-DHL-2 = assay: Apoptosis, 72 hr: SU-DHL-2; assay type: cell-based, human
Autophagy = assay: High content imaging screen: autophagy (LC3 cleavage, autophagic granules); assay type: cell-based
Description: (§1) Mechanism of Action Screens A series of broad high content imaging, transcriptomic, metabolomic, and CRISPR KO screens were performed to link Compound A197 activity to a probable method of action. The outcome of these screens included two notable observations.

Metabolites = assay: Metabolomic screen; assay type: cell-based; details: GSH, ATP/AMP ratio, isocitrate and aconitate
Description: as §1

Oxidative Stress = assay: High content imaging screen: oxidative stress (ROS); assay type: cell-based
Description: as §1

NHLF = assay: Apoptosis, 72 hr: NHLF; assay type: cell-based, human
Kinase = assay: In vitro assays: kinase; assay type: biochemical; details: 63 kinase family members including Raf, MEK, ERK, AKT, CDK1-4
BJAB [2] = assay: Cell proliferation, Cell-Titre Glo, 72 hours: BJAB; assay type: cell-based; details: Homo sapiens, mean ± std. dev.
Description: (§2) NHLF, BJAB, SU-DHL-2, and HCT-116 cells were treated with Compound A197 for 4 hours prior to lysate harvest. Total cellular glutathione (GSH) levels were determined using a luminescent endpoint (GSH-Glo, Promega). Cell proliferation was determined using Cell-Titre Glo following 72 hours of compound treatment. All data shown is mean±SD of three biological replicates.

Cell cycle = assay: High content imaging screen: cell cycle; assay type: cell-based
Description: as §1

BJAB [3] = assay: Total cellular GSH levels (GSH-Glo): BJAB; assay type: cell-based, human; details: 4 hrs, mean ± std. dev.
Description: as §2

Structure (SMILES) | EC50 [1] [µM] | regression in DLBCL tumors (SU-DHL-10 xenograft) | Apoptosis, 72 hr (HCT-116) | Apoptosis, 72 hr (SU-DHL-2) | Outcome: Autophagy (Autophagy) | Outcome: Metabolites (Metabolites) | Outcome: Oxidative Stress (Oxidative Stress) | Apoptosis, 72 hr (NHLF) | Outcome: Kinase (Kinase) | IC50 (BJAB [2]) [µM] | Outcome: Cell cycle (Cell cycle) | GSH % Max reduction (BJAB [3]) [%] | IC50 (BJAB [3]; Homo sapiens, read-out: GSH IC50 (Abs)) [µM]
COC(=O)c1c(-c2cccc(F)c2)c(C)nn1-c1nc(C2=CCC(C(F)(F)F)CC2)c(SC(C)C)s1 (single isomer, unassigned) [Compound B19, methyl 4-(3-fluorophenyl)-1-(5-(isopropylthio)-4-(4-(trifluoromethyl)cyclohex-1-en-1-yl)thiazol-2-yl)-3-methyl-1H-pyrazole-5-carboxylate] | < 1 | dose-dependent and durable regression in DLBCL tumors by day 21 | – | – | – | – | – | – | – | – | – | – | –
Cc1nn(-c2nc(-c3ccc(C(F)(F)F)cc3)c(SC(C)C)s2)c(C(=O)O)c1-c1cccc(F)c1 [Compound A197, 4-(3-fluorophenyl)-1-(5-(isopropylthio)-4-(4-(trifluoromethyl)phenyl)thiazol-2-yl)-3-methyl-1H-pyrazole-5-carboxylic acid] | – | – | No | Yes | No detectable LC3 cleavage; no formation of | induced specific alterations in redox (decreased GSH), energy (decrease in ATP/AMP ratio), and TCA cycle intermediates (decreased isocitrate/aconitate) in tumor cells but not NHLF; also recorded: Decrease in total GSH levels; decrease in ATP/AMP | No production of ROS | No | No activity on 63 kinase family members including Raf, | 0.295 ± 0.11 | G1 arrest associated with TP53 independent CDKN1A | 69 ± 11 | 0.208 ± 0.08
